This is an account of results in patent publication US10696675B2, “Imidazopyridopyrimidine derivative compound and use thereof” (HANMI PHARMACEUTICAL CO., LTD., priority 2016, dated 2020).

Usually pIC50 stands for −log10 of the IC50, conventionally taken in molar units.

This test relates to HUH7 cells. In words: Proliferation inhibitory effect for HUH7 cells (SRB assay). The note with it: Homo sapiens, Huh-7, 72 hours, GI50, read-out: IC50 HUH7 Cell Line. Type of test: cell-based. How it is done: Test Example 2: Measuring Inhibitory Effect of FGFR Inhibitor Using Cell Line
The test was carried out for identifying a proliferation inhibitory effect of the compound of the present invention for HUH7 cells. HUH7 cell lines were counted and 5.0×10^3 cells were inoculated per well in a 96 well plate. After the innoculation, the cells were cultured for 24 hours in a 37 □ and 5% carbon dioxide (CO2) incubator. On the next day, the synthesized compounds were each diluted and prepared. The diluted compounds were introduced to the cell lines inoculated the previous day by concentrations, and reacted for 72 hours in a 37 □ and 5% carbon dioxide (CO2) incubator. However, to a positive control to which the compound was not added, 0.1% dimethyl sulfoxide (DMSO) diluted with a medium was introduced. To a negative control plate, a trichloroacetic acid (TCA) solution was introduced, and fixed at 4 □. After reacting for 72 hours, the medium including the compound was removed, a TCA solution was added thereto, and the cells were fixed for 30 minutes to 60 minutes at 4 □. The TCA solution was discarded, the plate was washed off with distilled water and then dried in the air. A 0.4% sulforhodamin B (SRB) solution was added to the plate and dyed for 10 minutes at room temperature. The plate was washed off with tap water including a 1% acetic acid solution, and then dried in the air. A 10 mM Trizma base solution was added to dissolve the solid SRB. Using a microplate reader, optical density (O.D. value) was measured at 540 nm. A GI50 value of each of the compounds was calculated using GraphPad Prism V6.0 Software.
(In SRB staining, fixed cells bind dye roughly in proportion to their protein.)

pIC50: −log10 of the molar value. Where only a bound is given, the exact number is not on record here.

Turning to `C=CC(=O)Nc1cc(C2CCN(C)CC2)ccc1Nc1ncc2cc(-c3c(Cl)c(OC)cc(OC)c3Cl)c3nccn3c2n1` [compound 23], the pIC50 is more than 7.30.

As for `C=CC(=O)Nc1cc(OC2CCN(CC)CC2)ccc1Nc1ncc2cc(-c3c(Cl)c(OC)cc(OC)c3Cl)c3nccn3c2n1` [compound 56], the negative logarithm of the IC50 (pIC50) was more than 7.30. The value for `C=CC(=O)Nc1cc(OC2CCN(C)CC2)c(F)cc1Nc1ncc2cc(-c3c(Cl)c(OC)cc(OC)c3Cl)c3nccn3c2n1` [compound 62] was more than 7.30; that for `C=CC(=O)Nc1cc(N2CCCC2)ccc1Nc1ncc2cc(-c3c(Cl)c(OC)cc(OC)c3Cl)c3nccn3c2n1` [compound 33] was 6.30 to 7.30; that for `C=CC(=O)Nc1cc(N2CCOCC2)cc(F)c1Nc1ncc2cc(-c3c(Cl)c(OC)cc(OC)c3Cl)c3nccn3c2n1` [compound 67] was 6.30 to 7.30. For `C=CC(=O)Nc1cc(F)cc(F)c1Nc1ncc2cc(-c3c(F)c(OC)cc(OC)c3F)c3nccn3c2n1` [compound 76] the value was 6.30 to 7.30; for `C=CC(=O)Nc1ccc(F)cc1Nc1ncc2cc(-c3c(Cl)c(OC)cc(OC)c3Cl)c3nccn3c2n1` [compound 12], 6.30 to 7.30; for `C=CC(=O)Nc1cc(OCCN(C)C)ccc1Nc1ncc2cc(-c3c(Cl)c(OC)cc(OC)c3Cl)c3nccn3c2n1` [compound 30], more than 7.30. With `C=CC(=O)Nc1ccc(N2CCN(CC)CC2)cc1Nc1ncc2cc(-c3c(Cl)c(OC)cc(OC)c3Cl)c3nccn3c2n1` [compound 13], the negative-log IC50 (pIC50) was more than 7.30. For `C=CC(=O)Nc1cc(C#N)ccc1Nc1ncc2cc(-c3c(Cl)c(OC)cc(OC)c3Cl)c3nccn3c2n1` [compound 17] the value was 6.30 to 7.30; for `C=CC(=O)Nc1cc(N2C[C@@H](C)O[C@@H](C)C2)ccc1Nc1cc2c(cn1)cc(-c1c(Cl)c(OC)cc(OC)c1Cl)c1nccn12` [compound 84], more than 7.30. Consider `C=CC(=O)NC1COCC1Nc1ncc2cc(-c3c(Cl)c(OC)cc(OC)c3Cl)c3nccn3c2n1` (stereo not drawn) [compound 3], for which the pIC50 was 6.30 to 7.30.

Take `C=CC(=O)N[C@H]1CCOC[C@H]1Nc1ncc2cc(-c3c(F)c(OC)cc(OC)c3F)c3nccn3c2n1` [compound 5]: the negative logarithm of the IC50 (pIC50) is 6.30 to 7.30. The value for `C=CC(=O)Nc1cn(C)nc1Nc1ncc2cc(-c3c(Cl)c(OC)cc(OC)c3Cl)c3nccn3c2n1` [compound 71] was 6.30 to 7.30; that for `C=CC(=O)Nc1cc(N2CCOCC2)cc(OC)c1Nc1ncc2cc(-c3c(Cl)c(OC)cc(OC)c3Cl)c3nccn3c2n1` [compound 65] was 6.30 to 7.30.

With `COc1cc(OC)c(Cl)c(-c2cc3cnc(-c4cncc(N5CCOCC5)c4)nc3n3ccnc23)c1Cl` [compound 81], the pIC50 was less than 6.30. As for `C=CC(=O)Nc1cc2c(cc1Nc1ncc3cc(-c4c(Cl)c(OC)cc(OC)c4Cl)c4nccn4c3n1)CCC2` [compound 57], the negative-log IC50 (pIC50) was 6.30 to 7.30. Turning to `C=CC(=O)NC1CCCC1Nc1ncc2cc(-c3c(Cl)c(OC)cc(OC)c3Cl)c3nccn3c2n1` (stereo not drawn) [Synthesis Example 1, N-(2-((6-(2,6-dichloro-3,5-dimethoxyphenyl)imidazo[1′,2′:1,6]pyrido[2,3-d]pyrimidin-2-yl)amino)cyclopentyl)acrylamide], the negative logarithm of the IC50 (pIC50) was 6.30 to 7.30. Turning to `C=CC(=O)Nc1ccc(F)c(F)c1Nc1ncc2cc(-c3c(F)c(OC)cc(OC)c3F)c3nccn3c2n1` [compound 78], the pIC50 is 6.30 to 7.30. For `COc1cc(OC)c(Cl)c(-c2cc3cnc(Nc4ccc(N5CCOCC5)cc4NC(=O)/C=C/CN(C)C)nc3n3ccnc23)c1Cl` [compound 34] the value was 6.30 to 7.30.

On to `C=CC(=O)Nc1cc(C2CC2)ccc1Nc1ncc2cc(-c3c(Cl)c(OC)cc(OC)c3Cl)c3nccn3c2n1` [compound 21], for which the pIC50 was 6.30 to 7.30. The value for `C=CC(=O)Nc1cc(F)c(F)cc1Nc1ncc2cc(-c3c(F)c(OC)cc(OC)c3F)c3nccn3c2n1` [compound 77] was 6.30 to 7.30.

On to `C=CC(=O)Nc1cc(N2CCC(OC)CC2)ccc1Nc1ncc2cc(-c3c(Cl)c(OC)cc(OC)c3Cl)c3nccn3c2n1` [compound 40], for which the negative-log IC50 (pIC50) is more than 7.30. The value for `C=CC(=O)NC1CCCCC1Nc1ncc2cc(-c3c(Cl)c(OC)cc(OC)c3Cl)c3nccn3c2n1` (stereo not drawn) [compound 2] was 6.30 to 7.30; that for `C=CC(=O)Nc1cc(Cl)ccc1Nc1ncc2cc(-c3c(Cl)c(OC)cc(OC)c3Cl)c3nccn3c2n1` [compound 15] was 6.30 to 7.30. For `C=CC(=O)Nc1ccccc1Nc1ncc2cc(-c3c(Cl)c(OC)cc(OC)c3Cl)c3nccn3c2n1` [Synthesis Example 6, N-(2-((6-(2,6-dichloro-3,5-dimethoxyphenyl)imidazo[1′,2′:1,6]pyrido[2,3-d]pyrimidin-2-yl)amino)phenyl)acrylamide] the value was more than 7.30. Regarding `C=CC(=O)Nc1cc(N2CCOCC2)cnc1Nc1cc2c(cn1)cc(-c1c(Cl)c(OC)cc(OC)c1Cl)c1nccn12` [compound 86], the pIC50 is more than 7.30. For `C=CC(=O)Nc1cc(F)cc(C)c1Nc1ncc2cc(-c3c(Cl)c(OC)cc(OC)c3Cl)c3nccn3c2n1` [compound 64] the value was less than 6.30; for `C=CC(=O)Nc1ccccc1Nc1ncc2cc(-c3c(F)c(OC)cc(OC)c3F)c3nccn3c2n1` [compound 75], more than 7.30.

As to `C=CC(=O)Nc1cccc(Nc2ncc3cc(-c4c(Cl)c(OC)cc(OC)c4Cl)c4nccn4c3n2)c1` [compound 7], the pIC50 is more than 7.30. On to `C=CC(=O)Nc1cc(OC2CCN(CC(F)(F)F)CC2)ccc1Nc1ncc2cc(-c3c(Cl)c(OC)cc(OC)c3Cl)c3nccn3c2n1` [compound 55], for which the negative logarithm of the IC50 (pIC50) was 6.30 to 7.30. The value for `C=CC(=O)Nc1cc(OC(C)C)ccc1Nc1ncc2cc(-c3c(Cl)c(OC)cc(OC)c3Cl)c3nccn3c2n1` [compound 28] was more than 7.30. As to `C=CC(=O)Nc1cccc(Nc2ncc3cc(-c4c(F)c(OC)cc(OC)c4F)c4nccn4c3n2)c1` [compound 74], the pIC50 is more than 7.30. The value for `C=CC(=O)Nc1cc(O[C@@H]2CCOC2)c(F)cc1Nc1ncc2cc(-c3c(Cl)c(OC)cc(OC)c3Cl)c3nccn3c2n1` [compound 59] was more than 7.30. The value for `C=CC(=O)Nc1cccc(Cl)c1Nc1ncc2cc(-c3c(F)c(OC)cc(OC)c3F)c3nccn3c2n1` [compound 79] was 6.30 to 7.30. For `C=CC(=O)Nc1cc(N2CCOCC2)cnc1Nc1ncc2cc(-c3c(Cl)c(OC)cc(OC)c3Cl)c3nccn3c2n1` [compound 70] the value was 6.30 to 7.30; for `C=CC(=O)Nc1cc(N2CCC[C@H]2COC)ccc1Nc1ncc2cc(-c3c(Cl)c(OC)cc(OC)c3Cl)c3nccn3c2n1` [compound 50], more than 7.30; for `C=CC(=O)Nc1cc(OC)ccc1Nc1ncc2cc(-c3c(Cl)c(OC)cc(OC)c3Cl)c3nccn3c2n1` [compound 26], more than 7.30. As to `C=CC(=O)Nc1cc(OCC)ccc1Nc1ncc2cc(-c3c(Cl)c(OC)cc(OC)c3Cl)c3nccn3c2n1` [compound 27], the pIC50 is more than 7.30. For `C=CC(=O)Nc1cc(F)ccc1Nc1ncc2cc(-c3c(Cl)c(OC)cc(OC)c3Cl)c3nccn3c2n1` [compound 14] the value was 6.30 to 7.30. The value for `C=CC(=O)Nc1cc(N2CCOCC2)cc(Cl)c1Nc1ncc2cc(-c3c(Cl)c(OC)cc(OC)c3Cl)c3nccn3c2n1` [compound 68] was less than 6.30. For `C=CC(=O)Nc1cc(N2CC(O)C2)ccc1Nc1ncc2cc(-c3c(Cl)c(OC)cc(OC)c3Cl)c3nccn3c2n1` [compound 45] the value was more than 7.30; for `C=CC(=O)Nc1cc(CC)ccc1Nc1ncc2cc(-c3c(Cl)c(OC)cc(OC)c3Cl)c3nccn3c2n1` [compound 20], 6.30 to 7.30. With `C=CC(=O)Nc1cc(N2CCN(CC3CC3)CC2)ccc1Nc1ncc2cc(-c3c(Cl)c(OC)cc(OC)c3Cl)c3nccn3c2n1` [compound 43], the pIC50 is more than 7.30. For `C=CC(=O)Nc1cc(C)ccc1Nc1ncc2cc(-c3c(Cl)c(OC)cc(OC)c3Cl)c3nccn3c2n1` [compound 19] the value was more than 7.30; for `C=CC(=O)Nc1cccc(C)c1Nc1ncc2cc(-c3cc(OC)cc(OC)c3)c3nccn3c2n1` [compound 8], less than 6.30; for `C=CC(=O)Nc1cc(N2CCOCC2)ccc1Nc1ncc2cc(-c3c(F)c(OC)cc(OC)c3F)c3nccn3c2n1` [compound 73], more than 7.30.

Regarding `C=CC(=O)Nc1cc(N2CCN(C(=O)C3CC3)CC2)ccc1Nc1ncc2cc(-c3c(Cl)c(OC)cc(OC)c3Cl)c3nccn3c2n1` [compound 42], the pIC50 was more than 7.30.

On to `C=CC(=O)Nc1cc(N2CCC(OC)C2)ccc1Nc1ncc2cc(-c3c(Cl)c(OC)cc(OC)c3Cl)c3nccn3c2n1` (stereo not drawn) [compound 41], for which the pIC50 was more than 7.30. The value for `COc1cc(OC)c(Cl)c(-c2cc3cnc(Nc4ccc(N5CCOCC5)cc4NC(=O)/C=C\Cl)nc3n3ccnc23)c1Cl` [compound 47] was more than 7.30; that for `C=CC(=O)Nc1cc(O[C@@H]2CCOC2)c(C)cc1Nc1ncc2cc(-c3c(Cl)c(OC)cc(OC)c3Cl)c3nccn3c2n1` [compound 60] was 6.30 to 7.30. The value for `C=CC(=O)Nc1cc(N(C)C)ccc1Nc1ncc2cc(-c3c(Cl)c(OC)cc(OC)c3Cl)c3nccn3c2n1` [compound 24] was more than 7.30; that for `C=CC(=O)Nc1cc(-c2ncc3cc(-c4c(Cl)c(OC)cc(OC)c4Cl)c4nccn4c3n2)cc(N2CCOCC2)c1` [compound 82] was less than 6.30. The value for `C=CC(=O)Nc1cccnc1Nc1ncc2cc(-c3c(Cl)c(OC)cc(OC)c3Cl)c3nccn3c2n1` [compound 69] was 6.30 to 7.30.
